Data as given in ChEMBL document CHEMBL3991601, “The target landscape of clinical kinase drugs” (Science, 2017).
The source made the active and inactive calls. On the calls: in the data inactive means no Kd found up to 30 µM.

Columns and labels:
[1] = molecular target: Serine/threonine-protein kinase MRCK gamma (Homo sapiens, UniProt Q6DT37)
[2] = molecular target: T1, Isoleucine--tRNA ligase, mitochondrial (Homo sapiens, UniProt Q9NSE4)
T1 sequence (Q9NSE4 whole entry): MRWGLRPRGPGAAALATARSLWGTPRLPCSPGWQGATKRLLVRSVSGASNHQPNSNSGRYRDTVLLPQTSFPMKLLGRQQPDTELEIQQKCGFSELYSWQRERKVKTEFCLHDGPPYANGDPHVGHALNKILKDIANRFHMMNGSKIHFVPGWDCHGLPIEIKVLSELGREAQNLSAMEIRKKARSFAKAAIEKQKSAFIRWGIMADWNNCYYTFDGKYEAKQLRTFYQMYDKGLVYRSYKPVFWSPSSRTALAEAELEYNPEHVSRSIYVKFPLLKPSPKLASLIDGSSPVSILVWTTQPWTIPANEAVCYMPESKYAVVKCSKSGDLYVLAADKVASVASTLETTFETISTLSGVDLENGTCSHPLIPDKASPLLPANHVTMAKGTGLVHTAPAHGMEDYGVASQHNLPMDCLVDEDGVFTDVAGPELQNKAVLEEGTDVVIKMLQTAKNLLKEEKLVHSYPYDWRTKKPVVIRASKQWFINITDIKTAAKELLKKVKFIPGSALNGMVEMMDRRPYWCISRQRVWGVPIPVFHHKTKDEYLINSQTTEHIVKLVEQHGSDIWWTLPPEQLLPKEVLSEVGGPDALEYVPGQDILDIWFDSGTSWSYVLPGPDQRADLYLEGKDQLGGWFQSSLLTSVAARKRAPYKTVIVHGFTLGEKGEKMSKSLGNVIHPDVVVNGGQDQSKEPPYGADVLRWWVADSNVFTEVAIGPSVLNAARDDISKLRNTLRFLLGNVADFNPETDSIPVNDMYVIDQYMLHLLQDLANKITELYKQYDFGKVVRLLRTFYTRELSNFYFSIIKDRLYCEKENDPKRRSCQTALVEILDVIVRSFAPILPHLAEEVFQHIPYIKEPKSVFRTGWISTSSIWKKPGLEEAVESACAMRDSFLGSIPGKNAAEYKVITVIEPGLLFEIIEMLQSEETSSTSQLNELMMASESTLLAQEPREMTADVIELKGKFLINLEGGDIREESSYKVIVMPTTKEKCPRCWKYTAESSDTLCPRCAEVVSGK

[3] = molecular target: T2, Dual specificity mitogen-activated protein kinase kinase 4 (Homo sapiens, UniProt P45985)
T2 sequence (P45985 whole entry): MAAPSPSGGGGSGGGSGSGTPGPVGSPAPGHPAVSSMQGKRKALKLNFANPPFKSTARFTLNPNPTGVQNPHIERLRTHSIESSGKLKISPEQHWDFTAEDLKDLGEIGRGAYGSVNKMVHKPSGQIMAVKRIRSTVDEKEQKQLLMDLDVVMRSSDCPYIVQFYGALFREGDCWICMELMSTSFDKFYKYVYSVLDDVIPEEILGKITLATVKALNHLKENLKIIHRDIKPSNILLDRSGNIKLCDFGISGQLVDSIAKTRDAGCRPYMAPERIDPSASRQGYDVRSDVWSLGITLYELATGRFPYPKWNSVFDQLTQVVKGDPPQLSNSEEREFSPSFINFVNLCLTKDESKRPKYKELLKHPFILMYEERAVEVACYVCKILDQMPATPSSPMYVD

[4] = molecular target: T3, Tyrosine-protein kinase Mer (Homo sapiens, UniProt Q12866)
T3 sequence (Q12866 whole entry): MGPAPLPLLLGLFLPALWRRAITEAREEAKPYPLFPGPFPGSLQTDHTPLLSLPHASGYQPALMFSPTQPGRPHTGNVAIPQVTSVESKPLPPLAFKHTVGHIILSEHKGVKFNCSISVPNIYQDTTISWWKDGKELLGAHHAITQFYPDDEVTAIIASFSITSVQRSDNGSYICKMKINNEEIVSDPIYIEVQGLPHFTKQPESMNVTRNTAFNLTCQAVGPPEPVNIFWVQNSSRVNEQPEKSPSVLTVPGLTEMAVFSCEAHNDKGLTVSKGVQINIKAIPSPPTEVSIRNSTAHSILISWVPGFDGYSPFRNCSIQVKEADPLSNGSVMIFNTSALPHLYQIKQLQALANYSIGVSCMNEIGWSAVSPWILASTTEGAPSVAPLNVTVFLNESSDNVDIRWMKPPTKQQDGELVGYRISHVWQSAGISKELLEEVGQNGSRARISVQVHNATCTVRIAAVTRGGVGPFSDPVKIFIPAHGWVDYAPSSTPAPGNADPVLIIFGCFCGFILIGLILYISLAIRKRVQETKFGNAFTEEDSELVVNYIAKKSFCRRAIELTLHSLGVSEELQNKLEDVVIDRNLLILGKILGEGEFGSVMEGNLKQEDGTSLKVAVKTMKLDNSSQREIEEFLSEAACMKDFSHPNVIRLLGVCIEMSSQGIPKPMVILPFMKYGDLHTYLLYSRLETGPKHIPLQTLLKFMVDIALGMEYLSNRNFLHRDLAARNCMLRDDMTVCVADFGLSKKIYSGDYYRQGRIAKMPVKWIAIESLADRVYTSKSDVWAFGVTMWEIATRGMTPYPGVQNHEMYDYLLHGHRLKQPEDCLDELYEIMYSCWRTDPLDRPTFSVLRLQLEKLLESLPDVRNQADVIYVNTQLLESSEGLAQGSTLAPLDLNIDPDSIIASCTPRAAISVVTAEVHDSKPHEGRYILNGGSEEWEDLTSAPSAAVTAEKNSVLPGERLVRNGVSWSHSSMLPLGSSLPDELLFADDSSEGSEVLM

[5] = molecular target: MAP kinase-activated protein kinase 3 (Homo sapiens, UniProt Q16644)
[6] = molecular target: Serine/threonine-protein kinase 38 (Homo sapiens, UniProt Q15208)
[7] = molecular target: Cyclin-dependent kinase 10 (Homo sapiens, UniProt Q15131)
[8] = molecular target: Tyrosine-protein kinase Fgr (Homo sapiens, UniProt P09769)
[9] = molecular target: Eukaryotic peptide chain release factor GTP-binding subunit ERF3B (Homo sapiens, UniProt Q8IYD1)
Sequence of Eukaryotic peptide chain release factor GTP-binding subunit ERF3B (Q8IYD1 whole entry): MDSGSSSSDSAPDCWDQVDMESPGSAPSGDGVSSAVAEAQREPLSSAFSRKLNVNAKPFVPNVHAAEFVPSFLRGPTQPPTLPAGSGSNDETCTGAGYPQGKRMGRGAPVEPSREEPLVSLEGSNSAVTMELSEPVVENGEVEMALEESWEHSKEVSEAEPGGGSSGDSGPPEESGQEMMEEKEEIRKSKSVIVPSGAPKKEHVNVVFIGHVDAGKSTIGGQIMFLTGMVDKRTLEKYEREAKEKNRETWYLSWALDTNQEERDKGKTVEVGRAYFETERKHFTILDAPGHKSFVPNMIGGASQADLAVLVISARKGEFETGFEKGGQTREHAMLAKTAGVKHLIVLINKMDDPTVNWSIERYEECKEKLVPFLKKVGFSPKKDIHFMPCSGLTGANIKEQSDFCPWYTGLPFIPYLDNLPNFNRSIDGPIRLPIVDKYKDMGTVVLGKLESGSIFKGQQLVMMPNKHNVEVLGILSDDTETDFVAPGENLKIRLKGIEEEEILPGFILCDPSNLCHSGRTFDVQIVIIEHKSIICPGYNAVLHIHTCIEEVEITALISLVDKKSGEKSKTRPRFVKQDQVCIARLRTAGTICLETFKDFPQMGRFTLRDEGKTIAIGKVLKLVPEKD

Sequence of Serine/threonine-protein kinase MRCK gamma (Q6DT37 whole entry): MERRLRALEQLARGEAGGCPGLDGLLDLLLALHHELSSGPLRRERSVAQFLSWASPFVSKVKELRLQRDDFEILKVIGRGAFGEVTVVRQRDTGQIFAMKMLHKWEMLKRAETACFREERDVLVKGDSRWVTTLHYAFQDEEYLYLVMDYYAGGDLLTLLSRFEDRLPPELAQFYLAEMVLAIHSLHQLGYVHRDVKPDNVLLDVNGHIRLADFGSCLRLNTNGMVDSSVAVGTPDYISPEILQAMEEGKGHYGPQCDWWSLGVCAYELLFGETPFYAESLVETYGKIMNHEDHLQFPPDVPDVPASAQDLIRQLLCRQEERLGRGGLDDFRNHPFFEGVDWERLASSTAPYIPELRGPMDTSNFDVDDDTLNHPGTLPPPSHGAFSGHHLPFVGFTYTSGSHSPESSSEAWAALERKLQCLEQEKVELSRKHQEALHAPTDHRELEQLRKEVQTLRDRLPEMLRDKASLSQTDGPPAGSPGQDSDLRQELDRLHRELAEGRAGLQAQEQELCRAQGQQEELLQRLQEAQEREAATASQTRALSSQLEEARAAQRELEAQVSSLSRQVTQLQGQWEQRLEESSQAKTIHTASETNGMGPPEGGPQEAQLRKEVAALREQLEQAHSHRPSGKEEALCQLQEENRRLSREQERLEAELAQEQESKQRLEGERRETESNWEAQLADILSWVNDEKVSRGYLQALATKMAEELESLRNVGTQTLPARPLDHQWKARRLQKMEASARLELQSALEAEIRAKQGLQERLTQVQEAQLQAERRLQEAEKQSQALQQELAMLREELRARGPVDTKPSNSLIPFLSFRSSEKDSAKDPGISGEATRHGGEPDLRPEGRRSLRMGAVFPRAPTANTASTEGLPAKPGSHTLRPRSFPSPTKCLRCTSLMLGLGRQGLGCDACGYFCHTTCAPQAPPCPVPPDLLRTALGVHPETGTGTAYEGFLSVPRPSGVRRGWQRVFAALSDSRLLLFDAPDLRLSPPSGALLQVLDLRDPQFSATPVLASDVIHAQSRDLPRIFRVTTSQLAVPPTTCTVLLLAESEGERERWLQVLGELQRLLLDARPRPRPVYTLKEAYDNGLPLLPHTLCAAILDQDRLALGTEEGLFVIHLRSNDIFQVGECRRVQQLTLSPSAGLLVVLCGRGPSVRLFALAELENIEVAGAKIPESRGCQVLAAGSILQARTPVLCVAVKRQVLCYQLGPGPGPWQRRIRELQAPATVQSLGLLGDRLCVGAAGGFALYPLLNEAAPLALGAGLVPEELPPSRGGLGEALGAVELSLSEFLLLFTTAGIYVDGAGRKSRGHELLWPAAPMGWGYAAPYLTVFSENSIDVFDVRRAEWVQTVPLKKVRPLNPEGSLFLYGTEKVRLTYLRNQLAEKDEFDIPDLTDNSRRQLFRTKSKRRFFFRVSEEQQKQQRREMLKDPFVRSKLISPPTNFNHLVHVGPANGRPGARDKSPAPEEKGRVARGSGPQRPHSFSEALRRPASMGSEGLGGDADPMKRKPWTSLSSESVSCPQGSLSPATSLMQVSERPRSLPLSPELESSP
Sequence of Serine/threonine-protein kinase 38 (Q15208 whole entry): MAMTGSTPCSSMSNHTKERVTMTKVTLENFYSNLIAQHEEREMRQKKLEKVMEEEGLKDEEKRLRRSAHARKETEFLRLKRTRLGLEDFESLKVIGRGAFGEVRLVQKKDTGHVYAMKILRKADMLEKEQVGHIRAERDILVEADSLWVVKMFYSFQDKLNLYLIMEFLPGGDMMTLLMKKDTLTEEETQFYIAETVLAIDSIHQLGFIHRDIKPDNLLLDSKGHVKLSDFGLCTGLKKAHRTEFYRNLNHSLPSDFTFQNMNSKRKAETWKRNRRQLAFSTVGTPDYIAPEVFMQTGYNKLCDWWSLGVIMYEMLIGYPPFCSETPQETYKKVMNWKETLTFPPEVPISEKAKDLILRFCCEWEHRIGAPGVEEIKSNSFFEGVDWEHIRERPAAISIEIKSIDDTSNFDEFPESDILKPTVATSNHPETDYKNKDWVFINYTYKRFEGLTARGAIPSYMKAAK
Sequence of Cyclin-dependent kinase 10 (Q15131 whole entry): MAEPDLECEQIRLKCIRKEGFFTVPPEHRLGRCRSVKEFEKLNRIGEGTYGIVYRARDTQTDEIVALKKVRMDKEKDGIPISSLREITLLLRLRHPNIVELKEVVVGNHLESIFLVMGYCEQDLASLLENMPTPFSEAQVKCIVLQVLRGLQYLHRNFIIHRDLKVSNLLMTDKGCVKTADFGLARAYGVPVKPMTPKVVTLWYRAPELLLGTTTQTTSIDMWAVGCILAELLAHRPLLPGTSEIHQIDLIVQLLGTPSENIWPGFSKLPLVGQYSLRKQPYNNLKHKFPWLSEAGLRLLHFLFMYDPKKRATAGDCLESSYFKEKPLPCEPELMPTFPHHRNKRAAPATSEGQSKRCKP
Sequence of Tyrosine-protein kinase Fgr (P09769 whole entry): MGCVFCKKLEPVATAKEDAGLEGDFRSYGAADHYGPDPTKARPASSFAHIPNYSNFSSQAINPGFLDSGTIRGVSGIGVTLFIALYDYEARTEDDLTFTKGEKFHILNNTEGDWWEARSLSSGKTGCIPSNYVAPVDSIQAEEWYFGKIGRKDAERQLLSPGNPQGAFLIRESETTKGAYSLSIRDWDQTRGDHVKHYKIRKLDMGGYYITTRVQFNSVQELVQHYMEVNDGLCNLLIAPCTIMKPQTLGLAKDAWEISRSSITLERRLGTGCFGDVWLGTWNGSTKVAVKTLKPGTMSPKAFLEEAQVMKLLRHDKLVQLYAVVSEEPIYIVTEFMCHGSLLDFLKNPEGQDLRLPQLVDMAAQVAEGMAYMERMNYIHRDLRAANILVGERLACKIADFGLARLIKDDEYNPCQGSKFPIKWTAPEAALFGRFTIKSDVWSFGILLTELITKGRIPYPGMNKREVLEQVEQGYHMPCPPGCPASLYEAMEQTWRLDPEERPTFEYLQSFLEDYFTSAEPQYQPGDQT
Sequence of MAP kinase-activated protein kinase 3 (Q16644 whole entry): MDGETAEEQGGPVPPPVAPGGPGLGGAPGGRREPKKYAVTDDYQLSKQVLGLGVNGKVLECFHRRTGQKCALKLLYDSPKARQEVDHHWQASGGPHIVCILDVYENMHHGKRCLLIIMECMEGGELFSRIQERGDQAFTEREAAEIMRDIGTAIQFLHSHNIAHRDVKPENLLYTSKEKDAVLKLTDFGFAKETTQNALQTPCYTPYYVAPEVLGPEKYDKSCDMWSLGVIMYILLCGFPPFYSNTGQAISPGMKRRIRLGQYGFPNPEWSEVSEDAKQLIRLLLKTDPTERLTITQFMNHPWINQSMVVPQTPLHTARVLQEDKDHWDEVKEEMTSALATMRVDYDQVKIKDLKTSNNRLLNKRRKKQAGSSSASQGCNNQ

Compound | Kd [1] | Kd [2] | Kd [3] | Kd [6] | also measured
CCc1cnn2c(NCc3ccc[n+]([O-])c3)cc(N3CCCC[C@H]3CCO)nc12 [DINACICLIB] | > 30 µM (inactive) | > 30 µM (inactive) | > 30 µM (inactive) |  | Kd [4]: > 30 µM (inactive)
Cn1ncc(Cl)c1-c1cc(C(=O)N[C@H](CN)Cc2cccc(F)c2)sc1Cl [AFURESERTIB] | > 30 µM (inactive) |  |  |  | 
CN(C)C(=O)c1cc2cnc(Nc3ccc(N4CCNCC4)cn3)nc2n1C1CCCC1 [RIBOCICLIB] | > 30 µM (inactive) | > 30 µM (inactive) | > 30 µM (inactive) |  | 
C[C@@H]1CN(Cc2ccc(F)cc2)[C@@H](C)CN1C(=O)c1cc2c(C(=O)C(=O)N(C)C)cn(C)c2cc1Cl [TALMAPIMOD] | > 30 µM (inactive) |  |  | > 30 µM (inactive) | Kd [5]: > 30 µM (inactive)
Cn1cc(-c2ccc3nnc(C(F)(F)c4ccc5ncccc5c4)n3n2)cn1 [JNJ-38877605] | > 30 µM (inactive) |  |  |  | Kd [7]: > 30 µM (inactive); Kd [8]: > 30 µM (inactive)
Cc1ccc(-n2nc(C(C)(C)C)cc2NC(=O)NCc2cc(F)ccc2Oc2ccc3c(cnn3CCO)c2)cc1 [PEXMETINIB] | > 30 µM (inactive) | > 30 µM (inactive) | > 30 µM (inactive) | > 30 µM (inactive) | Kd [5]: > 30 µM (inactive); Kd [4]: 2.81 µM
CN1CCN(c2ccc3nc(-c4c(N)c5c(F)cccc5[nH]c4=O)[nH]c3c2)CC1 [DOVITINIB] |  |  |  |  | Kd [7]: > 30 µM (inactive)
Cc1cc(Nc2cc(N3CCN(C)CC3)nc(/C=C/c3ccccc3)n2)n[nH]1 [ENMD-2076] | > 30 µM (inactive) | > 30 µM (inactive) | > 30 µM (inactive) | > 30 µM (inactive) | Kd [7]: > 30 µM (inactive)
CCn1c(=O)c(-c2cc[nH]n2)cc2c(C)nc(N)nc21 [VOXTALISIB] | > 30 µM (inactive) | > 30 µM (inactive) |  | > 30 µM (inactive) | Kd [9]: > 30 µM (inactive)
Cn1cc(-c2ccc(F)c(C(F)(F)F)c2)nc1C1CCN(c2ncnc3[nH]ncc23)CC1 [LY-2584702] | > 30 µM (inactive) |  |  | > 30 µM (inactive) | 
N[C@@H]1CCCN(c2c(/C=C3\SC(=O)NC3=O)cccc2-c2ccccc2)C1 | > 30 µM (inactive) | > 30 µM (inactive) |  |  | Kd [9]: > 30 µM (inactive)
CNC(=O)CN1CCC(Oc2cc3c(Nc4cccc(Cl)c4F)ncnc3cc2OC)CC1 [SAPITINIB] | > 30 µM (inactive) |  | > 30 µM (inactive) |  | Kd [4]: > 30 µM (inactive)
CNC(=O)c1ccc(C)c(-n2c(C)cc(OCc3ccc(F)cc3F)c(Br)c2=O)c1 [PH-797804] |  |  |  | > 30 µM (inactive) | Kd [8]: > 30 µM (inactive)
CNC(=O)c1cc(Oc2ccc(NC(=O)Nc3ccc(Cl)c(C(F)(F)F)c3)c(F)c2)ccn1 [REGORAFENIB] | > 30 µM (inactive) | > 30 µM (inactive) |  |  | Kd [7]: > 30 µM (inactive); Kd [8]: > 30 µM (inactive)
COCCNCc1ccc(-c2cc3nccc(Oc4ccc(NC(=S)NC(=O)Cc5ccc(F)cc5)cc4F)c3s2)nc1 [GLESATINIB] | > 30 µM (inactive) | > 30 µM (inactive) | > 30 µM (inactive) |  | Kd [5]: > 30 µM (inactive)
CN1CC[C@@H](c2c(O)cc(O)c3c(=O)cc(-c4ccccc4Cl)oc23)[C@@H]1CO |  | > 30 µM (inactive) |  |  | Kd [4]: > 30 µM (inactive)
COc1cc(OC)c(/C=C/S(=O)(=O)Cc2ccc(OC)c(NCC(=O)O)c2)c(OC)c1 [RIGOSERTIB] | > 30 µM (inactive) |  |  | > 30 µM (inactive) | Kd [8]: > 30 µM (inactive)

Compound | Kd [1] | Kd [2] | Kd [3] | Kd [6] | also measured
CCn1c(-c2nonc2N)nc2c(C#CC(C)(C)O)ncc(OC[C@H]3CCCNC3)c21 [GSK-690693] |  | > 30 µM (inactive) |  |  | 
C1=C/COCc2cc(ccc2OCCN2CCCC2)Nc2nccc(n2)-c2cccc(c2)COC/1 [PACRITINIB] |  | > 30 µM (inactive) |  |  | 
COc1cc2nccc(Oc3ccc(NC(=O)Nc4cc(C)on4)c(Cl)c3)c2cc1OC [TIVOZANIB] | > 30 µM (inactive) | > 30 µM (inactive) | > 30 µM (inactive) |  | Kd [7]: > 30 µM (inactive); Kd [4]: > 30 µM (inactive)
C[C@@H](c1ccc2nccn2c1)n1nnc2ncc(-c3cnn(C)c3)nc21 [SAVOLITINIB] |  | > 30 µM (inactive) |  |  | 
Cc1cn(-c2cc(NC(=O)c3ccc(C)c(Nc4nccc(-c5cccnc5)n4)c3)cc(C(F)(F)F)c2)cn1 [NILOTINIB] |  | > 30 µM (inactive) |  |  | 
Nc1nc(N)c2nc(-c3cccc(O)c3)c(-c3cccc(O)c3)nc2n1 [TG100-115] |  | > 30 µM (inactive) |  |  | 
CN1CCC(COc2cnc(-c3cccc(Cn4nc(-c5cccc(C#N)c5)ccc4=O)c3)nc2)CC1 [TEPOTINIB] | > 30 µM (inactive) | > 30 µM (inactive) | > 30 µM (inactive) |  | 
Cc1cc([C@@H](C)Nc2ccccc2C(=O)O)c2nc(N3CCOCC3)cc(=O)n2c1 [AZD-6482] | > 30 µM (inactive) |  | > 30 µM (inactive) | > 30 µM (inactive) | Kd [4]: > 30 µM (inactive)
CCS(=O)(=O)N1CC(CC#N)(n2cc(-c3ncnc4[nH]ccc34)cn2)C1 [BARICITINIB] | > 30 µM (inactive) | > 30 µM (inactive) |  |  | Kd [9]: > 30 µM (inactive); Kd [5]: > 30 µM (inactive)
Cc1nc(N)sc1-c1ccnc(Nc2ccc(N3CCOCC3)cc2)n1 [CYC-116] |  | > 30 µM (inactive) | > 30 µM (inactive) |  | Kd [8]: > 30 µM (inactive)
Cc1c(F)cc(C(=O)NC2CC2)cc1-c1ccc(C(=O)NCC(C)(C)C)cn1 [LOSMAPIMOD] | > 30 µM (inactive) |  |  | > 30 µM (inactive) | Kd [4]: > 30 µM (inactive)
O=C(c1ccc(F)c(F)c1Nc1ccc(I)cc1F)N1CC(O)([C@@H]2CCCCN2)C1 [COBIMETINIB] |  |  | > 30 µM (inactive) |  | Kd [5]: > 30 µM (inactive)
COc1cc(N2CCC(N3CCN(C)CC3)CC2)ccc1Nc1ncnc(Nc2ccccc2S(=O)(=O)C(C)C)n1 [ASP-3026] | > 30 µM (inactive) |  |  |  | 
C[C@@H](Nc1cc(F)cc(F)c1)c1cc(C(=O)N(C)C)cc2c(=O)cc(N3CCOCC3)oc12 [AZD-8186] |  |  |  | > 30 µM (inactive) | 
CN1CCC(CNc2ccc3ncc(-c4cccc(OC(F)(F)F)c4)n3n2)CC1 [SGI-1776] | > 30 µM (inactive) | > 30 µM (inactive) |  |  | Kd [5]: > 30 µM (inactive); Kd [4]: > 30 µM (inactive)
C=CC(=O)N1CCC(Oc2cc3c(Nc4ccc(Cl)c(Cl)c4F)ncnc3cc2OC)CC1 [POZIOTINIB] |  |  |  | > 30 µM (inactive) | 
